pIC50: −log10 of the molar value.
How the values were obtained:
human PDE10A = target: T1, human PDE10A (Homo sapiens, UniProt Q9Y233); assay: human PDE10A full length Scintillation Proximity Assay (SPA); assay type: biochemical; settings: 50 nM cGMP and 50 nM [3H]-cGMP, 20 minutes at room temperature; read-out: PDE10A inhibition IC50
T1 construct: The human PDE10A full length assay; purchased Enzo Life Science, Lausen, Switzerland SE-534
In short: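 Full-length enzyme at 3.75 ng/well in 20 mM HEPES pH 7.5, 10 mM MgCl2, 0.05 mg/ml BSA, with 50 nM cGMP plus 50 nM [3H]-cGMP substrate, 20 min at room temperature. Stopped with YSi-SPA beads in zinc sulphate and counted by scintillation. IC50 from inhibitor concentration series; no-enzyme wells define background.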

T1 sequence (Q9Y233 1-779 isoform Q9Y233-1): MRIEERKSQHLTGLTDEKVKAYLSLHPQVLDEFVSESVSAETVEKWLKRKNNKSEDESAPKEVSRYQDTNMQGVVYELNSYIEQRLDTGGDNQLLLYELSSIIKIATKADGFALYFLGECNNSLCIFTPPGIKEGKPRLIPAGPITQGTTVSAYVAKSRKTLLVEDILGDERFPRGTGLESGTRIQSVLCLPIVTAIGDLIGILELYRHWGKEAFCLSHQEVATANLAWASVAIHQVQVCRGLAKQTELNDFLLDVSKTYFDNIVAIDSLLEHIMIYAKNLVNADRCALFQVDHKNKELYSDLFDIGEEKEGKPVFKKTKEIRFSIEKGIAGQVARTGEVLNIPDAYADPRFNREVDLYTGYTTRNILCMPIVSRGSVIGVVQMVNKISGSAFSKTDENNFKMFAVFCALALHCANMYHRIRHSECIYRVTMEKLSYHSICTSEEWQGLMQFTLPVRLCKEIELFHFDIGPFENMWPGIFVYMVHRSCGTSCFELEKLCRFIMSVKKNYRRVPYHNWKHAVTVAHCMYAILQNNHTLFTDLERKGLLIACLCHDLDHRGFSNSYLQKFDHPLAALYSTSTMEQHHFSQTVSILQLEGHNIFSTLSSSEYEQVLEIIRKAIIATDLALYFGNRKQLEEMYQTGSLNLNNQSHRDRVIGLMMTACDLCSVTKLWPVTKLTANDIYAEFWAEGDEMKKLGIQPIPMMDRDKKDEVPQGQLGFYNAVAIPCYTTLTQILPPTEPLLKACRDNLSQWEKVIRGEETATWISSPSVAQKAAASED

Compound	melting point [°C]	pIC50 (human PDE10A)
Cc1ncc(Cl)c(C(=O)Nc2ccn3cc(-c4ccccc4)nc3n2)n1 [Example 79, 5-Chloro-2-methyl-N-(2-phenylimidazo[1,2-a]pyrimidin-7-yl)pyrimidine-4-carboxamide]	> 250	6.61
Cc1cc(C(=O)Nc2ccn3cc(-c4ccccc4)nc3n2)ccn1 [Example 80, 2-Methyl-N-(2-phenylimidazo[1,2-a]pyrimidin-7-yl)isonicotinamide]	255 to 257	6.30
Cc1cc(C(=O)Nc2ccn3cc(-c4ccccc4)nc3n2)cc(Cl)n1 [Example 81, 2-Chloro-6-methyl-N-(2-phenylimidazo[1,2-a]pyrimidin-7-yl)isonicotinamide]	148 to 151	6.15
CC1CCCN1C(=O)c1cnn(C)c1C(=O)Nc1ccn2cc(-c3ccccc3)nc2n1 (stereo not drawn) [Example 116, 1-methyl-4-(2-methylpyrrolidine-1-carbonyl)-N-(2-phenylimidazo[1,2-a]pyrimidin-7-yl)-1H-pyrazole-5-carboxamide]	–	8.29
C=CCn1ncc(C(=O)N2CCC2)c1C(=O)Nc1ccn2cc(-c3ccccc3)nc2n1 [Example 120, 1-allyl-4-(azetidine-1-carbonyl)-N-(2-phenylimidazo[1,2-a]pyrimidin-7-yl)-1H-pyrazole-5-carboxamide]	–	7.86
Cc1nn(C)c(C(=O)Nc2ccn3cc(-c4ccccc4)nc3n2)c1Br [Example 5, 4-Bromo-2,5-dimethyl-2H-pyrazole-3-carboxylic acid (2-phenyl-imidazo[1,2-a]pyrimidin-7-yl)-amide]	–	7.57
CN(Cc1ccccn1)C(=O)c1cnn(C)c1C(=O)Nc1ccn2cc(-c3ccccc3)nc2n1 [Example 135, N4,1-dimethyl-N5-(2-phenylimidazo[1,2-a]pyrimidin-7-yl)-N4-(pyridin-2-ylmethyl)-1H-pyrazole-4,5-dicarboxamide]	–	7.19
COc1cccc(-c2cn3ccc(NC(=O)c4c(C(=O)N(C)CCOCCF)cnn4C)nc3n2)c1 [Example 110]	–	6.65
Cn1ncc(C(=O)NC2(C#N)CC2)c1C(=O)Nc1ccn2cc(-c3ccccc3)nc2n1 [Example 145, N4-(1-cyanocyclopropyl)-1-methyl-N5-(2-phenylimidazo[1,2-a]pyrimidin-7-yl)-1H-pyrazole-4,5-dicarboxamide]	–	6.68
Cn1ncc(C(=O)NCc2ccc(Cl)nc2)c1C(=O)Nc1ccn2cc(-c3ccccc3)nc2n1 [Example 154, N4-((6-chloropyridin-3-yl)methyl)-1-methyl-N5-(2-phenylimidazo[1,2-a]pyrimidin-7-yl)-1H-pyrazole-4,5-dicarboxamide]	–	6.50
Cn1ncc(-c2ccno2)c1C(=O)Nc1ccn2cc(-c3ccccc3)nc2n1 [Example 20, 4-Isoxazol-5-yl-2-methyl-2H-pyrazole-3-carboxylic acid (2-phenyl-imidazo[1,2-a]pyrimidin-7-yl)-amide]	–	6.19
Cn1ncc(C(=O)NCc2ccc(C(F)(F)F)nc2)c1C(=O)Nc1ccn2cc(-c3ccccc3)nc2n1 [Example 144, 1-methyl-N5-(2-phenylimidazo[1,2-a]pyrimidin-7-yl)-N-4-((6-(trifluoromethyl)pyridin-3-yl)methyl)-1H-pyrazole-4,5-dicarboxamide]	–	6.70
COc1cccc(C(=O)Nc2ccn3cc(-c4ccccc4)nc3n2)n1 [Example 22, 6-Methoxy-pyridine-2-carboxylic acid (2-phenyl-imidazo[1,2-a]pyrimidin-7-yl)-amide]	–	7.38
CCN(C)C(=O)c1cn(C)nc1C(=O)Nc1ccn2cc(-c3ccccc3)nc2n1 [Example 68, 1-Methyl-1H-pyrazole-3,4-dicarboxylic acid 4-(ethyl-methyl-amide) 3-[(2-phenyl-imidazo[1,2-a]pyrimidin-7-yl)-amide]]	–	7.42
Cc1ccc(C)c(C(=O)Nc2ccn3cc(-c4ccccc4)nc3n2)n1 [Example 17, 3,6-Dimethyl-pyridine-2-carboxylic acid (2-phenyl-imidazo[1,2-a]pyrimidin-7-yl)-amide]	–	7.55
Cn1ncc(C(=O)NCc2ccccn2)c1C(=O)Nc1ccn2cc(-c3ccccc3)nc2n1 [Example 118, 1-methyl-N5-(2-phenylimidazo[1,2-a]pyrimidin-7-yl)-N4-(pyridin-2-ylmethyl)-1H-pyrazole-4,5-dicarboxamide]	–	7.92
CCN(CC)C(=O)c1cnn(C)c1C(=O)Nc1ccn2cc(-c3ccccc3)nc2n1 [Example 47, 2-Methyl-2H-pyrazole-3,4-dicarboxylic acid 4-diethylamide 3-[(2-phenyl-imidazo[1,2-a]pyrimidin-7-yl)-amide]]	–	7.82
Cn1ncc(C(=O)N2CCC2)c1C(=O)Nc1ccn2cc(-c3cccc(OCCF)c3)nc2n1 [Example 103, 4-(Azetidine-1-carbonyl)-2-methyl-2H-pyrazole-3-carboxylic acid {2-[3-(2-fluoro-ethoxy)-phenyl]imidazo[1,2-a]pyrimidin-7-yl}-amide]	–	7.54
Cc1cc(Br)cnc1C(=O)Nc1ccn2cc(-c3ccccc3)nc2n1 [Example 23, 5-Bromo-3-methyl-pyridine-2-carboxylic acid (2-phenyl-imidazo[1,2-a]pyrimidin-7-yl)-amide]	–	7.19
Cn1ncc(C(=O)NC2(C)COC2)c1C(=O)Nc1ccn2cc(-c3ccccc3)nc2n1 [Example 134, 1-methyl-N4-(3-methyloxetan-3-yl)-N5-(2-phenylimidazo[1,2-a]pyrimidin-7-yl)-1H-pyrazole-4,5-dicarboxamide]	–	7.24

Results, then the compound that gave them:

melting point [°C]	pIC50 (human PDE10A)	Compound
225 to 226	6.90	COc1ncccc1C(=O)Nc1ccn2cc(-c3ccccc3)nc2n1 [Example 78, 2-Methoxy-N-(2-phenylimidazo[1,2-a]pyrimidin-7-yl)nicotinamide]
–	7.91	CN(CCF)C(=O)c1cnn(C)c1C(=O)Nc1ccn2cc(-c3ccccc3)nc2n1 [Example 95, 2-Methyl-2H-pyrazole-3,4-dicarboxylic acid 4-[(2-fluoro-ethyl)-methyl-amide]3-[(2-phenyl-imidazo[1,2-a]pyrimidin-7-yl)-amide]]
–	7.64	Cn1ncc(C(=O)NCCCO)c1C(=O)Nc1ccn2cc(-c3ccccc3)nc2n1 [Example 38]
–	6.79	O=C(Nc1ccn2cc(-c3ccccc3)nc2n1)c1nn[nH]c1C(=O)N1CCC1 [Example 27, 5-(Azetidine-1-carbonyl)-1H-[1,2,3]triazole-4-carboxylic acid (2-phenyl-imidazo[1,2-a]pyrimidin-7-yl)-amide]
–	6.08	Cn1ncc(C(=O)NCc2nc(C3CC3)no2)c1C(=O)Nc1ccn2cc(-c3ccccc3)nc2n1 [Example 167, N4-((3-cyclopropyl-1,2,4-oxadiazol-5-yl)methyl)-1-methyl-N5-(2-phenylimidazo[1,2-a]pyrimidin-7-yl)-1H-pyrazole-4,5-dicarboxamide]
–	7.90	COCCN(C)C(=O)c1cnn(C)c1C(=O)Nc1ccn2cc(-c3cccc(OCCF)c3)nc2n1 [Example 96, 2-Methyl-2H-pyrazole-3,4-dicarboxylic acid 3-({2-[3-(2-fluoro-ethoxy)-phenyl]-imidazo[1,2-a]pyrimidin-7-yl}-amide) 4-[(2-methoxy-ethyl)-methyl-amide]]
–	8.36	CCn1ncc(C(=O)N2CCC2)c1C(=O)Nc1ccn2cc(-c3ccccc3)nc2n1 [Example 69, 4-(Azetidine-1-carbonyl)-2-ethyl-2H-pyrazole-3-carboxylic acid (2-phenyl-imidazo[1,2-a]pyrimidin-7-yl)-amide]
–	7.83	Cn1ncc(C(=O)NC2CC2)c1C(=O)Nc1ccn2cc(-c3ccccc3)nc2n1 [Example 51, 2-Methyl-2H-pyrazole-3,4-dicarboxylic acid 4-cyclopropylamide 3-[(2-phenyl-imidazo[1,2-a]pyrimidin-7-yl)-amide]]
–	7.59	CCN(C)C(=O)c1nn(C)cc1C(=O)Nc1ccn2cc(-c3ccccc3)nc2n1 [Example 67, 1-Methyl-1H-pyrazole-3,4-dicarboxylic acid 3-(ethyl-methyl-amide) 4-[(2-phenyl-imidazo[1,2-a]pyrimidin-7-yl)-amide]]
–	6.37	Cn1cc(Cl)c(CNC(=O)c2cnn(C)c2C(=O)Nc2ccn3cc(-c4ccccc4)nc3n2)n1 [Example 158, N4-((4-chloro-1-methyl-1H-pyrazol-3-yl)methyl)-1-methyl-N5-(2-phenylimidazo[1,2-a]pyrimidin-7-yl)-1H-pyrazole-4,5-dicarboxamide]
–	6.35	O=C(Nc1ccn2cc(-c3ccccc3)nc2n1)c1nn[nH]c1C(=O)NC1CC1 [Example 159, N5-cyclopropyl-N4-(2-phenylimidazo[1,2-a]pyrimidin-7-yl)-1H-1,2,3-triazole-4,5-dicarboxamide]
–	7.56	Cn1ncc(C(=O)NCC2CC2)c1C(=O)Nc1ccn2cc(-c3ccccc3)nc2n1 [Example 58, 2-Methyl-2H-pyrazole-3,4-dicarboxylic acid 4-cyclopropylmethyl-amide 3-[(2-phenyl-imidazo[1,2-a]pyrimidin-7-yl)-amide]]
–	6.82	O=C(Nc1ccn2cc(-c3ccccc3)nc2n1)c1nn[nH]c1C(=O)NC1COC1 [Example 141, N5-(oxetan-3-yl)-N4-(2-phenylimidazo[1,2-a]pyrimidin-7-yl)-1H-1,2,3-triazole-4,5-dicarboxamide]
–	6.85	CCn1ncc(Cl)c1C(=O)Nc1ccn2cc(-c3ccccc3)nc2n1 [Example 7, 4-Chloro-2-ethyl-2H-pyrazole-3-carboxylic acid (2-phenyl-imidazo[1,2-a]pyrimidin-7-yl)-amide]
–	7.64	CNC(=O)c1cnn(C)c1C(=O)Nc1ccn2cc(-c3cccc(Cl)c3)nc2n1 [Example 32, 2-Methyl-2H-pyrazole-3,4-dicarboxylic acid 3-{[2-(3-chloro-phenyl)-imidazo[1,2-a]pyrimidin-7-yl]-amide}4-methylamide]
